The structures appear in SMILES notation.

The values below come from US9539260B2, “Dihydro-benzo-oxazine and dihydro-pyrido-oxazine derivatives” (Novartis AG, priority 2012, dated 2017).

The target of one test is PI3K alpha (Homo sapiens (Human), UniProt P42336). The test is described as follows: Enzymatic PI3K alpha isoform inhibition (lipid kinase activity, Kinase-Glo luminescence). It counts as biochemical. As to conditions: Enzymatic assay. As for the experimental part:
(§1) 1.1 Test of Lipid Kinase Activity […]
(§2) In a more preferred assay, the kinase reaction is performed in a final volume of 10 μl per well of a low volume non-binding CORNING, 384 well black plate (Cat. No. #3676). The final concentrations of ATP and phosphatidyl inositol (PI) in the assay are 1 μM and 10 μg/mL, respectively. The reaction is started by the addition of ATP.
(§3) The components of the assay are added per well as follows:
(§4) The Z′ value is a universal measurement of the robustness of an assay. A Z′ between 0.5 and 1.0 is considered an excellent assay.
(§5) IC50 is determined by a four parameter curve fitting routine that comes along with “excel fit”. A four parameter logistic equation is used to calculate IC50 values (IDBS XLfit) of the percentage inhibition of each compound at 8 concentrations (usually 10, 3.0, 1.0, 0.3, 0.1, 0.030, 0.010 and 0.003 μM). Alternatively, IC50 values are calculated using idbsXLfit model 204, which is a 4 parameter logistic model.
(§6) Yet alternatively, for an ATP depletion assay, compounds of the formula I to be tested are dissolved in DMSO and directly distributed into a white 384-well plate at 0.5 μl per well. To start the reaction, 10 μl of 10 nM PI3 kinase and 5 μg/mL 1-alpha-phosphatidylinositol (PI) are added into each well followed by 10 μl of 2 μM ATP. The reaction is performed until approx 50% of the ATP is depleted, and then stopped by the addition of 20 μl of Kinase-Glo solution (Promega Corp., Madison, Wis., USA). The stopped reaction is incubated for 5 minutes and the remaining ATP is then detected via luminescence. IC50 values are then determined.
(In general: Kinase-Glo reads ATP consumption through a luciferase reaction.)

A further test addresses PI3K delta (Homo sapiens (Human), UniProt O00329). The test is described as follows: Enzymatic PI3K delta isoform inhibition (lipid kinase activity, Kinase-Glo luminescence). Particulars: Enzymatic assay. It counts as biochemical. The method, then: as §1, §2, §3, §4, §5, §6

Chain of PI3K delta (O00329 other isoform, or with tags, fused parts or gaps linker GGGGGG): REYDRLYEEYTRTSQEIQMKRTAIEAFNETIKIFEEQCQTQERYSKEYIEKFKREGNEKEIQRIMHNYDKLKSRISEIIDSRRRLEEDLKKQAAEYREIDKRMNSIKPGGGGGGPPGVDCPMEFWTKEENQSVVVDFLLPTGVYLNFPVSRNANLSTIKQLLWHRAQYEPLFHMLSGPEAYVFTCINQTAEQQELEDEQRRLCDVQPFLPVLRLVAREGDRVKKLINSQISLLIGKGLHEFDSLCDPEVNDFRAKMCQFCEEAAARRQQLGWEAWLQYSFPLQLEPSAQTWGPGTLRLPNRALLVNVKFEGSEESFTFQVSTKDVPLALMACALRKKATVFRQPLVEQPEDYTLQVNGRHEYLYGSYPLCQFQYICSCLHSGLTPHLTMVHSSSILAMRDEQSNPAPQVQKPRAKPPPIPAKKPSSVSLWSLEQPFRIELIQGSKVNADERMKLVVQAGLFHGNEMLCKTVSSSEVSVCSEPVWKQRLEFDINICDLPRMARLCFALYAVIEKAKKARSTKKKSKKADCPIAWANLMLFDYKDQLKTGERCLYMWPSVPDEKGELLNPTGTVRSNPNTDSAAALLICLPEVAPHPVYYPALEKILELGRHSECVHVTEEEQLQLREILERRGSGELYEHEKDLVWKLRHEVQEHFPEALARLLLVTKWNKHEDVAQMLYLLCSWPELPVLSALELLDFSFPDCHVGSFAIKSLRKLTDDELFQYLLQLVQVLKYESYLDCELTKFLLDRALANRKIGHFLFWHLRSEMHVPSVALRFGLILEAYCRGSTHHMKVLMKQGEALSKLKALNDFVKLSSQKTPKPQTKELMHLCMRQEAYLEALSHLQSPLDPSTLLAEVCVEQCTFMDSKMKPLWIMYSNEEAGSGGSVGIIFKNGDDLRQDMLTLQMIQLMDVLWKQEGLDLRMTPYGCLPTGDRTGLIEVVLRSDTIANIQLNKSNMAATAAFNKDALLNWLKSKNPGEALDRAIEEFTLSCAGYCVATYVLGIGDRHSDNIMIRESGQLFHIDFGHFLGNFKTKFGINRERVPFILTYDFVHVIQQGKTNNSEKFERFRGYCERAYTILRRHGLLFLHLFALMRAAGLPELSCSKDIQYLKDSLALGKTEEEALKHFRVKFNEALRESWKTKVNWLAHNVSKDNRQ
Chain of PI3K alpha (P42336 other isoform, or with tags, fused parts or gaps): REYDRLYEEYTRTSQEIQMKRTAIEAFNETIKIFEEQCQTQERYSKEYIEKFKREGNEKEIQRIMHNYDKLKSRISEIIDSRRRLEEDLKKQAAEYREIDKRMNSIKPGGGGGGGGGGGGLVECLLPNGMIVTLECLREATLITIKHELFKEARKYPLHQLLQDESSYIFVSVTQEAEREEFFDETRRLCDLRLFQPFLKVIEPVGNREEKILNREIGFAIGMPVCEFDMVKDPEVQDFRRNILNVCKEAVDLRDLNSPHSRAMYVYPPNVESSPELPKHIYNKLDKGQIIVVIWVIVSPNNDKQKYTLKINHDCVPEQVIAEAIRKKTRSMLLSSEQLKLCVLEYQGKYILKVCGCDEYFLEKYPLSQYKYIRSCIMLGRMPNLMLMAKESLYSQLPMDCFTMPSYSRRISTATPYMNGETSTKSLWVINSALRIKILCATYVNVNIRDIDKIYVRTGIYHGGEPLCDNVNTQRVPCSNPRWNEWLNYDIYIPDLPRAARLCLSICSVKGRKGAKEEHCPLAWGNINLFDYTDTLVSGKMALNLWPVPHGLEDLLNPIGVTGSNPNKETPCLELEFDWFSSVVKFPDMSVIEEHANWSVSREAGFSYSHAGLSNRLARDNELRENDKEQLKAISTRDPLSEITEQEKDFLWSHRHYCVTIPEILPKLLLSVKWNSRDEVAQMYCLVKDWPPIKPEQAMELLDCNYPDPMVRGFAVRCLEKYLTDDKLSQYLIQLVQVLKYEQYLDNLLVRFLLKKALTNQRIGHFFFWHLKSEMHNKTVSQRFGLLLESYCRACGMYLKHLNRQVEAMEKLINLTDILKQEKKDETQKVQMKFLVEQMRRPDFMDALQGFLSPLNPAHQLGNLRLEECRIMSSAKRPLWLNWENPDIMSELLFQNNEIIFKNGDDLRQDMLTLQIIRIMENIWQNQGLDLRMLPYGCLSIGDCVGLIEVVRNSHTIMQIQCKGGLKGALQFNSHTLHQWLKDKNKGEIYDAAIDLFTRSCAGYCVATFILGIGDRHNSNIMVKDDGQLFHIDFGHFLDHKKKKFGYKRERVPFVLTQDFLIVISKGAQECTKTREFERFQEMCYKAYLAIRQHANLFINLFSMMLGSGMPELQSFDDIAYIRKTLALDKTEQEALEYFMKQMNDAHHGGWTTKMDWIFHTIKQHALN

In general, IC50 refers to the concentration at which inhibition is half-maximal. `COc1ncc(N2CCOc3ccc(O[C@H]4CCN(C(=O)C5CCOC5)C4)cc32)cc1C` (stereo partly drawn) [Example B94, {(S)-3-[4-(6-Methoxy-5-methyl-pyridin-3-yl)-3,4-dihydro-2H-benzo[1,4]oxazin-6-yloxy]-pyrrolidin-1-yl}-(tetrahydro-furan-3-yl)-methanone]: the figures for the IC50 against PI3K alpha and on PI3K delta were 416 nM and 5 nM, respectively.

With `COc1ncc(N2CCOc3ccc(O[C@H]4CCN(C(=O)c5cncn5C)C4)cc32)cc1C#N` [Example D31, 2-Methoxy-5-{6-[(S)-1-(3-methyl-3H-imidazole-4-carbonyl)-pyrrolidin-3-yloxy]-2,3-dihydro-benzo[1,4]oxazin-4-yl}-nicotinonitrile], the IC50 on PI3K alpha is 135 nM; against PI3K delta, 9 nM.

With `Cc1cc(N2CCOc3ccc(O[C@H]4CCN(C(=O)C5CCOCC5)C4)cc32)cnc1Cl` [Example B58, {(S)-3-[4-(6-Chloro-5-methyl-pyridin-3-yl)-3,4-dihydro-2H-benzo[1,4]oxazin-6-yloxy]-pyrrolidin-1-yl}-(tetrahydro-pyran-4-yl)-methanone], the IC50 at PI3K alpha was found to be 366 nM; on PI3K delta it was 4 nM.

On to `COc1cc(N2CCOc3ccc(O[C@H]4CCN(C(=O)C5COCCO5)C4)cc32)cnc1OC` (single isomer, unassigned) [Example H6], for which the results for the IC50 against PI3K alpha and against PI3K delta were 846 nM and 53 nM, respectively.

For the compound `COc1ncc(N2CCOc3cnc(O[C@H]4CCN(C(=O)c5cn(C)cn5)C4)cc32)cc1C(F)F` [Example F10, {(S)-3-[1-(5-Difluoromethyl-6-methoxy-pyridin-3-yl)-2,3-dihydro-1H-pyrido[3,4-b][1,4]oxazin-7-yloxy]-pyrrolidin-1-yl}-(1-methyl-1H-imidazol-4-yl)-methanone], the IC50 on PI3K alpha is 39 nM; against PI3K delta, less than 3 nM.

On to `COc1ncc(N2CCOc3ccc(O[C@H]4CCN(C(=O)c5ccnn5C)C4)cc32)cc1C#N` [Example C8, 2-Methoxy-5-{6-[(S)-1-(2-methyl-2H-pyrazole-3-carbonyl)-pyrrolidin-3-yloxy]-2,3-dihydro-enzo[1,4]oxazin-4-yl}-nicotinonitrile], for which the results for the IC50 on PI3K alpha and on PI3K delta were 374 nM and 13 nM, respectively.

On to `COc1ncc(N2CCOc3ccc(O[C@H]4CCN(C(=O)c5ccn(C)c(=O)c5)C4)cc32)cc1C#N` [Example D19, 2-Methoxy-5-{6-[(S)-1-(1-methyl-2-oxo-1,2-dihydro-pyridine-4-carbonyl)-pyrrolidin-3-yloxy]-2,3-dihydro-benzo[1,4]oxazin-4-yl}-nicotinonitrile], for which the figures for the IC50 against PI3K alpha and against PI3K delta were 273 nM and 13 nM, respectively.

Take `COc1ncc(N2CCOc3cnc(O[C@H]4CCN(C(=O)C5CCOCC5)C4)cc32)cc1C(F)F` [Example F8, {(S)-3-[1-(5-Difluoromethyl-6-methoxy-pyridin-3-yl)-2,3-dihydro-1H-pyrido[3,4-b][1,4]oxazin-7-yloxy]-pyrrolidin-1-yl}-(tetrahydro-pyran-4-yl)-methanone]: the IC50 against PI3K alpha was found to be 38 nM; against PI3K delta, 5 nM.

As to `COc1ncc(N2CCOc3ccc(O[C@H]4CCN(C(=O)c5cncnc5)C4)cc32)cc1F` [Example B104, {(S)-3-[4-(5-Fluoro-6-methoxy-pyridin-3-yl)-3,4-dihydro-2H-benzo[1,4]oxazin-6-yloxy]-pyrrolidin-1-yl}-pyrimidin-5-yl-methanone], the values for the IC50 on PI3K alpha and against PI3K delta were 1370 nM and 162 nM, respectively.

As to `COCC(=O)N1CC[C@H](Oc2cc3c(cn2)OCCN3c2cnc(S(C)(=O)=O)c(C(F)F)c2)C1` [Example F11, 1-{(S)-3-[1-(5-Difluoromethyl-6-methanesulfonyl-pyridin-3-yl)-2,3-dihydro-1H-pyrido[3,4-b][1,4]oxazin-7-yloxy]-pyrrolidin-1-yl}-2-methoxy-ethanone], the IC50 at PI3K alpha turned out to be 78 nM; against PI3K delta, 76 nM.

Turning to `COc1ncc(N2CCOc3ccc(O[C@H]4CCN(C(=O)[C@@H]5CCN(C(C)=O)C5)C4)cc32)cc1C` [Example B122, 1-((R)-3-{(S)-3-[4-(6-Methoxy-5-methyl-pyridin-3-yl)-3,4-dihydro-2H-benzo[1,4]oxazin-6-yloxy]-pyrrolidine-1-carbonyl}-pyrrolidin-1-yl)-ethanone], the IC50 was determined as 425 nM on PI3K alpha and 24 nM against PI3K delta.

As to `COc1ncc(N2CCOc3ccc(O[C@H]4CCN(C(=O)C5CCS(=O)(=O)CC5)C4)cc32)cc1F` [Example B11, (1,1-Dioxo-hexahydro-1lambda*6*-thiopyran-4-yl)-{(S)-3-[4-(5-fluoro-6-methoxy-pyridin-3-yl)-3,4-dihydro-2H-benzo[1,4]oxazin-6-yloxy]-pyrrolidin-1-yl}-methanone], the IC50 at PI3K alpha came out at 823 nM; at PI3K delta it was 14 nM.

As for `Cc1cc(N2CCOc3cnc(O[C@H]4CCN(C(=O)C5CC5)C4)cc32)cnc1OC(F)F` [Example E11, Cyclopropyl-{(S)-3-[1-(6-difluoromethoxy-5-methyl-pyridin-3-yl)-2,3-dihydro-1H-pyrido[3,4-b][1,4]oxazin-7-yloxy]-pyrrolidin-1-yl}-methanone], the results for the IC50 at PI3K alpha and against PI3K delta were 377 nM and less than 3 nM, respectively.

As for `COc1ncc(N2C[C@H](C)Oc3ccc(O[C@H]4CCN(C(=O)C5CCOCC5)C4)cc32)cc1C#N` (single isomer, unassigned) [Example O2], the IC50 at PI3K alpha was found to be 5690 nM; at PI3K delta, 49 nM.

On to `COc1ncc(N2CCOc3ccc(O[C@H]4CCN(C(=O)C5CCC(OC)CC5)C4)cc32)cc1C#N` (single isomer, unassigned) [Example D35], for which the results for the IC50 on PI3K alpha and against PI3K delta were 414 nM and less than 3 nM, respectively.

Consider `Nc1ncc(N2CCOc3ccc(O[C@H]4CCN(C(=O)C5CCOCC5)C4)cc32)cc1C(F)(F)F` [Example A23, {(S)-3-[4-(6-Amino-5-trifluoromethyl-pyridin-3-yl)-3,4-dihydro-2H-benzo[1,4]oxazin-6-yloxy]-pyrrolidin-1-yl}-(tetrahydro-pyran-4-yl)-methanone], for which the IC50 at PI3K alpha worked out at 1570 nM; against PI3K delta, 170 nM.

For the compound `COc1ncc(N2CCOc3ccc(O[C@H]4CCN(C(=O)c5cc[nH]c(=O)c5)C4)cc32)cc1C#N` [Example D21, 2-Methoxy-5-{6-[(S)-1-(2-oxo-1,2-dihydro-pyridine-4-carbonyl)-pyrrolidin-3-yloxy]-2,3-dihydro-benzo[1,4]oxazin-4-yl}-nicotinonitrile], the IC50 on PI3K alpha stood at 519 nM; on PI3K delta, 41 nM.

Regarding `COc1ncc(N2CCOc3ccc(O[C@H]4CCN(C(=O)Cc5cn(C)cn5)C4)cc32)cc1C#N` [Example D37, 2-Methoxy-5-(6-{(S)-1-[2-(1-methyl-1H-imidazol-4-yl)-acetyl]-pyrrolidin-3-yloxy}-2,3-dihydro-benzo[1,4]oxazin-4-yl)-nicotinonitrile], the IC50 on PI3K alpha came to 298 nM; against PI3K delta, 127 nM.

For the compound `CC[S+]([O-])c1ccc(N2CCOc3ccc(O[C@H]4CCN(C(=O)C5CCOCC5)C4)cc32)cn1` (stereo partly drawn) [Example B7, {(S)-3-[4-(6-Ethanesulfinyl-pyridin-3-yl)-3,4-dihydro-2H-benzo[1,4]oxazin-6-yloxy]-pyrrolidin-1-yl}-(tetrahydro-pyran-4-yl)-methanone], the values for the IC50 at PI3K alpha and on PI3K delta were 3540 nM and 114 nM, respectively.

Turning to `CCOc1ncc(N2CCOc3ccc(O[C@H]4CCN(C(=O)C5CCS(=O)(=O)CC5)C4)cc32)cc1C` [Example B17, (1,1-Dioxo-hexahydro-1lambda*6*-thiopyran-4-yl)-{(S)-3-[4-(6-ethoxy-5-methyl-pyridin-3-yl)-3,4-dihydro-2H-benzo[1,4]oxazin-6-yloxy]-pyrrolidin-1-yl}-methanone], the IC50 on PI3K alpha worked out at 2090 nM; on PI3K delta it was 23 nM.

As to `COc1ccc(N2CCOc3ccc(O[C@H]4CCN(C(=O)CN5CCOCC5)C4)cc32)cn1` [Example D2, 1-{(S)-3-[4-(6-Methoxy-pyridin-3-yl)-3,4-dihydro-2H-benzo[1,4]oxazin-6-yloxy]-pyrrolidin-1-yl}-2-morpholin-4-yl-ethanone], the figures for the IC50 at PI3K alpha and at PI3K delta were 2740 nM and 149 nM, respectively.

On to `COc1ncc(N2CCOc3ccc(O[C@H]4CCN(C(=O)c5cnco5)C4)cc32)cc1Cl` [Example B108, {(S)-3-[4-(5-Chloro-6-methoxy-pyridin-3-yl)-3,4-dihydro-2H-benzo[1,4]oxazin-6-yloxy]-pyrrolidin-1-yl}-oxazol-5-yl-methanone], for which the results for the IC50 against PI3K alpha and against PI3K delta were 94 nM and less than 3 nM, respectively.

Consider `Cc1cc(N2CCOc3cnc(O[C@H]4CCN(C(=O)C5CCOCC5)C4)cc32)cnc1S(C)(=O)=O` [Example F6, {(S)-3-[1-(6-Methanesulfonyl-5-methyl-pyridin-3-yl)-2,3-dihydro-1H-pyrido[3,4-b][1,4]oxazin-7-yloxy]-pyrrolidin-1-yl}-(tetrahydro-pyran-4-yl)-methanone], for which the IC50 came out at 783 nM against PI3K alpha and 3 nM on PI3K delta.
